Measurements reported in ChEMBL document CHEMBL6074623, “Carbamoylation at C-8 position of natural 3-arylcoumarin scaffold for the discovery of novel PARP-1 inhibitors with potent anticancer activity” (Eur J Med Chem, 2024).

What was measured:
SUM149PT [1] = assay: Antiproliferative activity against human SUM149PT cells assessed as inhibition of cell growth at 5 uM incubated for 48 hrs by MTT assay relative to control; assay type: functional
CAPAN-1 = assay: Antiproliferative activity against human CAPAN-1 cells assessed as inhibition of cell growth at 20 uM incubated for 48 hrs by MTT assay relative to control; assay type: functional
SUM149PT [2] = assay: Induction of ROS in human SUM149PT cells assessed as increase in fluorescence intensity incubated for 48 hrs by DCFH-DA staining based confocal laser scanning microscopic analysis; assay type: functional, cell-based
SUM149PT [3] = assay: Induction of cell cycle arrest in human SUM149PT cells assessed as accumulation of cells at S phase at 0.1 uM incubated for 24 hrs by propidium iodide/RNase A staining based flow cytometry (reference value: 16.4 %); assay type: functional
SUM149PT [4] = assay: Induction of cell cycle arrest in human SUM149PT cells assessed as accumulation of cells at G2/M phase at 0.1 uM incubated for 24 hrs by propidium iodide/RNase A staining based flow cytometry (reference value: 5.54 %); assay type: functional
SUM149PT [5] = assay: Induction of cell cycle arrest in human SUM149PT cells assessed as accumulation of cells at G0/G1 phase at 0.5 uM incubated for 24 hrs by propidium iodide/RNase A staining based flow cytometry (reference value: 72.8 %); assay type: functional
SUM149PT [6] = assay: Induction of cell cycle arrest in human SUM149PT cells assessed as accumulation of cells at G0/G1 phase at 2 uM incubated for 24 hrs by propidium iodide/RNase A staining based flow cytometry (reference value: 72.8 %); assay type: functional
SUM149PT [7] = assay: Induction of cell cycle arrest in human SUM149PT cells assessed as accumulation of cells at S phase at 2 uM incubated for 24 hrs by propidium iodide/RNase A staining based flow cytometry (reference value: 16.4 %); assay type: functional
SUM149PT [8] = assay: Induction of cell cycle arrest in human SUM149PT cells assessed as accumulation of cells at G2/M phase at 2 uM incubated for 24 hrs by propidium iodide/RNase A staining based flow cytometry (reference value: 5.54 %); assay type: functional
SUM149PT [9] = assay: Induction of cell cycle arrest in human SUM149PT cells assessed as accumulation of cells at G0/G1 phase at 0.1 uM incubated for 48 hrs by propidium iodide/RNase A staining based flow cytometry (reference value: 69.2 %); assay type: functional
SUM149PT [10] = assay: Induction of cell cycle arrest in human SUM149PT cells assessed as accumulation of cells at S phase at 0.1 uM incubated for 48 hrs by propidium iodide/RNase A staining based flow cytometry (reference value: 18.7 %); assay type: functional
SUM149PT [11] = assay: Induction of cell cycle arrest in human SUM149PT cells assessed as accumulation of cells at G2/M phase at 0.1 uM incubated for 48 hrs by propidium iodide/RNase A staining based flow cytometry (reference value: […] %); assay type: functional
SUM149PT [12] = assay: Induction of cell cycle arrest in human SUM149PT cells assessed as accumulation of cells at G2/M phase at 0.5 uM incubated for 48 hrs by propidium iodide/RNase A staining based flow cytometry (reference value: […] %); assay type: functional
SUM149PT [13] = assay: Induction of cell cycle arrest in human SUM149PT cells assessed as accumulation of cells at G0/G1 phase at 2 uM incubated for 48 hrs by propidium iodide/RNase A staining based flow cytometry (reference value: 69.2 %); assay type: functional
SUM149PT [14] = assay: Induction of cell cycle arrest in human SUM149PT cells assessed as accumulation of cells at S phase at 2 uM incubated for 48 hrs by propidium iodide/RNase A staining based flow cytometry (reference value: 18.7 %); assay type: functional
SUM149PT [15] = assay: Induction of apoptosis in human SUM149PT cells assessed as late apoptotic cells at 0.1 uM incubated for 24 hrs by Annexin V-FITC/PI staining based flow cytometry (reference value: 2.45 %); assay type: functional
SUM149PT [16] = assay: Induction of apoptosis in human SUM149PT cells assessed as late apoptotic cells at 0.5 uM incubated for 24 hrs by Annexin V-FITC/PI staining based flow cytometry (reference value: 2.45 %); assay type: functional
SUM149PT [17] = assay: Induction of apoptosis in human SUM149PT cells assessed as viable cells at 2 uM incubated for 24 hrs by Annexin V-FITC/PI staining based flow cytometry (reference value: 93.7 %); assay type: functional; settings: read-out: Activity
SUM149PT [18] = assay: Induction of apoptosis in human SUM149PT cells assessed as early apoptotic cells at 2 uM incubated for 24 hrs by Annexin V-FITC/PI staining based flow cytometry (reference value: 2.59 %); assay type: functional
SUM149PT [19] = assay: Induction of apoptosis in human SUM149PT cells assessed as necrotic cells at 2 uM incubated for 24 hrs by Annexin V-FITC/PI staining based flow cytometry (reference value: 1.27 %); assay type: functional
SUM149PT [20] = assay: Induction of apoptosis in human SUM149PT cells assessed as viable cells at 0.1 uM incubated for 48 hrs by Annexin V-FITC/PI staining based flow cytometry (reference value: 96.1 %); assay type: functional; settings: read-out: Activity
SUM149PT [21] = assay: Induction of apoptosis in human SUM149PT cells assessed as late apoptotic cells at 0.1 uM incubated for 48 hrs by Annexin V-FITC/PI staining based flow cytometry (reference value: 1.13 %); assay type: functional
SUM149PT [22] = assay: Induction of apoptosis in human SUM149PT cells assessed as necrotic cells at 0.1 uM incubated for 48 hrs by Annexin V-FITC/PI staining based flow cytometry (reference value: 0.51 %); assay type: functional
SUM149PT [23] = assay: Induction of apoptosis in human SUM149PT cells assessed as viable cells at 0.5 uM incubated for 48 hrs by Annexin V-FITC/PI staining based flow cytometry (reference value: 96.1 %); assay type: functional; settings: read-out: Activity
SUM149PT [24] = assay: Induction of apoptosis in human SUM149PT cells assessed as necrotic cells at 0.5 uM incubated for 48 hrs by Annexin V-FITC/PI staining based flow cytometry (reference value: 0.51 %); assay type: functional
SUM149PT [25] = assay: Induction of apoptosis in human SUM149PT cells assessed as late apoptotic cells at 2 uM incubated for 48 hrs by Annexin V-FITC/PI staining based flow cytometry (reference value: 1.13 %); assay type: functional
SUM149PT [26] = assay: Induction of apoptosis in human SUM149PT cells assessed as upregulation of BAX expression incubated for 48 hrs by Western blotting analysis; assay type: functional, cell-based
SUM149PT [27] = assay: Induction of apoptosis in human SUM149PT cells assessed as upregulation of caspase-3 expression incubated for 48 hrs by Western blotting analysis; assay type: functional, cell-based
SUM149PT [28] = assay: Induction of apoptosis in human SUM149PT cells assessed as downregulation of BCL-2 expression incubated for 48 hrs by Western blotting analysis; assay type: functional, cell-based

COc1cccc(-c2cc3cc(F)cc(C(N)=O)c3oc2=O)c1
inhibition at 5 µM (SUM149PT [1]): > 70%
inhibition at 20 µM (CAPAN-1): > 60%
Activity (SUM149PT [2]): Dose-dependent-effect
Activity (SUM149PT [3]): 33.2%
Activity (SUM149PT [4]): 6.91%
Activity (SUM149PT [5]): 64.3%
Activity (SUM149PT [6]): 39.9%
Activity (SUM149PT [7]): 22.3%
Activity (SUM149PT [8]): 36.8%
Activity (SUM149PT [9]): 25.9%
Activity (SUM149PT [10]): 45.4%
Activity (SUM149PT [11]): 29.1%
Activity (SUM149PT [12]): 36.7%
Activity (SUM149PT [13]): 16.9%
Activity (SUM149PT [14]): 18.5%
Activity (SUM149PT [15]): 2.69%
Activity (SUM149PT [16]): 5.48%
viability at 2 µM (SUM149PT [17]): 76.7%
Activity (SUM149PT [18]): 9.8%
Activity (SUM149PT [19]): 6.61%
viability at 0.1 µM (SUM149PT [20]): 87.3%
Activity (SUM149PT [21]): 6%
Activity (SUM149PT [22]): 1.22%
viability at 0.5 µM (SUM149PT [23]): 61.3%
Activity (SUM149PT [24]): 11.9%
Activity (SUM149PT [25]): 6.85%
Activity (SUM149PT [26]): Dose-dependent-effect
Activity (SUM149PT [27]): Dose-dependent-effect
Activity (SUM149PT [28]): Dose-dependent-effect
